Data reported in article PMC5733478, “A Non-imaging High Throughput Approach to Chemical Library Screening at the Unmodified Adenosine-A3 Receptor in Living Cells” (Frontiers in Pharmacology, 2017).
Counter-ions that a name gives are not always drawn.

target: T1, human A3AR (Homo sapiens, UniProt P0DMS8); test: LOPAC library primary screen: single concentration (10 μM) inhibition of 25 nM CA200645 binding, PHERAstar FS; settings: not given
T1 construct: expressed in transfected cells
T1 sequence (P0DMS8 1-318): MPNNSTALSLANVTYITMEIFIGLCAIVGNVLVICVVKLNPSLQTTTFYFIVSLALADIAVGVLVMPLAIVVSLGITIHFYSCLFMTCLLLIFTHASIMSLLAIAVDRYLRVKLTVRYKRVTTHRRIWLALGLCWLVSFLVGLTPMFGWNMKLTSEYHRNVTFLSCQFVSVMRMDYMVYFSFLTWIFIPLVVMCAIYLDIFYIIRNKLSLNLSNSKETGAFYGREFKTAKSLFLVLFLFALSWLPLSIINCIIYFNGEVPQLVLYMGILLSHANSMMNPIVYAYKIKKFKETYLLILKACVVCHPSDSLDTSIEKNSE

Row | Compound | % 25 nM CA200645 binding
1 | NS(=O)(=O)c1cc2c(cc1Cl)NCNS2(=O)=O [Hydrochlorothiazide] | 95.6 ± 3.9%
2 | Cc1nn(-c2ccccc2)c(C)c1/C=N/N1CCN(Cc2ccccc2)CC1 [SANT-1] | 82.1 ± 15.9%
3 | O=C(O)c1cc2cc(F)ccc2[nH]1 [5-Fluoroindole-2-carboxylic acid] | 92.5 ± 8.9%
4 | CC(C)Cc1ccc([C@H](C)C(=O)O)cc1 [S(+)-Ibuprofen] | 107.7 ± 17.0%
5 | Fc1ccc([C@@H]2CCNC[C@H]2COc2ccc3c(c2)OCO3)cc1 [Paroxetine hydrochloride hemihydrate] | 97.2 ± 4.3%
6 | O=C1c2c(O)cc(O)cc2O[C@H](c2ccc(O)c(O)c2)[C@H]1O (racemic) [(±)-Taxifolin] | 111.1 ± 7.5%
7 | Cl.c1ccc2sc(C3(N4CCCCC4)CCCCC3)cc2c1 [BTCP hydrochloride] | 94.3 ± 14.0%
8 | COc1ccc(C(=O)N2CCCC2=O)cc1 [Aniracetam] | 95.9 ± 3.1%
9 | Br.COc1ccc2c(c1)[C@]13CCCC[C@@H]1[C@H](C2)N(C)CC3.O | 102.0 ± 12.4%
10 | CNc1cc(NS(=O)(=O)c2ccc(N)cc2)nc(NC)n1.Cl.Cl [Ro 04-6790 dihydrochloride] | 82.1 ± 15.5%
11 | CCc1c(C)[nH]c2c1C(=O)C(CN1CCOCC1)CC2 (stereo not drawn) [Molindone hydrochloride] | 91.2 ± 7.2%
12 | NC1=NCC2c3ccccc3Cc3ccccc3N12 (stereo not drawn) [Epinastine hydrochloride] | 96.6 ± 14.2%
13 | CN(C)C(=O)Oc1cccc([N+](C)(C)C)c1 [Neostigmine bromide] | 100.2 ± 23.4%
14 | N[C@@H](Cc1ccc(O)c(O)c1)C(=O)O [L-3,4-Dihydroxyphenylalanine] | 99.1 ± 9.5%
15 | CC[C@@]1(O)C(=O)OCc2c1cc1n(c2=O)Cc2cc3c(CN(C)C)c(O)ccc3nc2-1.Cl.O [Topotecan hydrochloride hydrate] | 102.0 ± 7.8%
16 | CCC(NC(C)C)C(O)c1ccc(O)c(O)c1.CS(=O)(=O)O (stereo not drawn) [Isotharine mesylate] | 102.1 ± 6.6%
17 | C=CCN1CC[C@]23c4c5ccc(O)c4O[C@H]2C(=O)CC[C@@]3(O)[C@H]1C5 [Naloxone hydrochloride] | 114.3 ± 14.2%
18 | CN1CCC[C@@H]1Cc1c[nH]c2ccc(Nc3ncccc3[N+](=O)[O-])cc12 [CP-135807] | 96.1 ± 6.8%
19 | NC(CCP(=O)(O)O)C(=O)O (racemic) [(±)-2-Amino-4-phosphonobutyric acid] | 99.9 ± 8.9%
20 | CN(N=O)c1cc(O)ccc1O [Dephostatin] | 75.4 ± 19.6%
21 | Nc1ccc2c3c(cccc13)C(=O)NC2=O [4-Amino-1,8-naphthalimide] | 95.4 ± 12.1%
22 | COc1cc(SC)ccc1C(=O)N1CCC(Cc2ccccc2)CC1 [JX401] | 84.6 ± 8.9%
23 | COc1cc2ncnc(Nc3cccc(Cl)c3)c2cc1OC [Tyrphostin AG 1478] | 90.3 ± 8.9%
24 | Cl.Nc1ccn([C@@H]2O[C@H](CO)[C@@H](O)[C@@H]2O)c(=O)n1 | 98.1 ± 3.7%

Row | Compound | % 25 nM CA200645 binding
25 | COc1ccc2c(c1)c(CC(=O)O)c(C)n2C(=O)c1ccccc1 | 59.0 ± 9.2%
26 | CCCCc1oc2ccccc2c1C(=O)c1cc(I)c(OCCN(CC)CC)c(I)c1 [Amiodarone hydrochloride] | 91.5 ± 10.5%
27 | CC#C[C@]1(O)CC[C@H]2[C@@H]3CCC4=CC(=O)CCC4=C3[C@@H](c3ccc(N(C)C)cc3)C[C@@]21C [Mifepristone] | 83.5 ± 5.2%
28 | O=C1CN(/N=C/c2ccc(-c3ccc([N+](=O)[O-])cc3)o2)C(O)=N1 [Dantrolene sodium] | 94.8 ± 9.5%
29 | N[C@H](C(=O)O)c1cc(O)cc(O)c1 [(S)-3,5-Dihydroxyphenylglycine] | 102.7 ± 20.4%
30 | COc1cc(OC)cc(-c2cc3cnc(N)nc3nc2NC(=O)NC(C)(C)C)c1 [PD-166866] | 34.3 ± 9.7%
31 | CCCc1nn(C)c2c(=O)[nH]c(-c3cc(S(=O)(=O)N4CCN(C)CC4)ccc3OCC)nc12.O=C(O)CC(O)(CC(=O)O)C(=O)O [Sildenafil citrate salt] | 88.1 ± 8.0%
32 | COc1cc2nc(N(C)CCCNC(=O)C3CCCO3)nc(N)c2cc1OC (stereo not drawn) [Alfuzosin hydrochloride] | 102.3 ± 4.9%
33 | CN1C(=O)CC[C@H]1c1cccnc1 [(-)-Cotinine] | 106.5 ± 4.3%
34 | OC[C@H]1NC[C@@H](O)[C@@H]1O [1,4-Dideoxy-1,4-imino-D-arabinitol] | 90.0 ± 6.2%
35 | Cl.O=c1cc(N2CCOCC2)oc2c(-c3ccccc3)cccc12 [LY-294,002 hydrochloride] | 94.6 ± 11.0%
36 | CN(C)CCC=C1c2ccccc2C=Cc2ccccc21 [Cyclobenzaprine hydrochloride] | 85.3 ± 24.5%
37 | Cn1cnc2c1c(=O)[nH]c(=O)n2C [Theobromine] | 101.7 ± 4.5%
38 | COc1ccccc1CN[C@@H]1CCCN[C@@H]1c1ccccc1.Cl.Cl.O [CP-100263 dihydrochloride hydrate] | 98.5 ± 6.9%
39 | Brc1c(NC2=NCCN2)ccc2nccnc12 [UK 14,304] | 102.1 ± 10.4%
40 | CC(N)Cc1c[nH]c2ccc(O)cc12.O=C(O)/C=C\C(=O)O (stereo not drawn) [alpha-Methyl-5-hydroxytryptamine maleate] | 115.5 ± 12.2%
41 | O=C1CCC(N2C(=O)c3ccccc3C2=O)C(=O)N1 (racemic) [(±)-Thalidomide] | 108.7 ± 11.6%
42 | CC(=O)N[C@@H](CS)C(=O)O [N-Acetyl-L-Cysteine] | 100.3 ± 0.2%
43 | C=CCN1CC[C@]23CCCC[C@H]2[C@H]1Cc1ccc(O)cc13 [Levallorphan tartrate] | 105.9 ± 7.3%
44 | Cc1cnc(NC(=O)C2=C(O)c3ccccc3S(=O)(=O)N2C)s1 [Meloxicam sodium] | 93.6 ± 6.8%
45 | [Cl-].[Li+] [Lithium Chloride] | 99.9 ± 5.2%
46 | Br.Oc1cc2c(c(Cl)c1O)CCNCC2c1ccccc1 (racemic) [(±)-6-Chloro-PB hydrobromide] | 99.3 ± 4.1%
47 | NC(=O)c1ccc2[nH]ccc2c1 [SD-169] | 96.7 ± 5.5%
48 | COc1cc2nc(N3CCN(C(=O)c4ccco4)CC3)nc(N)c2cc1OC [Prazosin hydrochloride] | 109.3 ± 23.7%

Row | Compound | % 25 nM CA200645 binding
49 | CC(N)c1cccc(Cl)c1Cl.Cl (racemic) | 100.4 ± 9.9%
50 | CC1CCN(CC[C@H]2CCCN2S(=O)(=O)c2cccc(O)c2)CC1.Cl [SB 269970 hydrochloride] | 93.6 ± 22.9%
51 | C1CCc2nnnn2CC1 [Pentylenetetrazole] | 95.4 ± 8.7%
52 | CCCCCCC(=O)OC1CC(C)(C)NC(C)(C)C1.Cl [TMPH hydrochloride] | 95.1 ± 13.7%
53 | CCCN1CCC[C@H](c2cccc(O)c2)C1.Cl [R(+)-3PPP hydrochloride] | 88.4 ± 12.1%
54 | COC(=O)[C@H]1[C@H]2C[C@@H]3c4[nH]c5cc(OC)ccc5c4CCN3C[C@H]2C[C@@H](OC(=O)c2cc(OC)c(OC)c(OC)c2)[C@@H]1OC [Reserpine] | 83.8 ± 14.9%
55 | CCCN(CCC)C(=O)C(CCC(=O)O)NC(=O)c1ccccc1 (stereo not drawn) [Proglumide] | 107.1 ± 0.6%
56 | Nc1ccc(CCN2CCN(c3cccc(C(F)(F)F)c3)CC2)cc1 [PAPP] | 95.6 ± 9.9%
57 | Ro 90-7501 | 72.1 ± 6.0%
58 | Br.C=CCN1CCc2c(cc(O)c(O)c2Br)[C@@H](c2ccccc2)C1 [R(+)-6-Bromo-APB hydrobromide] | 77.8 ± 20.1%
59 | CN1[C@@H]2CC[C@H]1C[C@@H](OC(c1ccccc1)c1ccccc1)C2 [Benztropine mesylate] | 96.0 ± 5.8%
60 | Cl.NCC(O)c1cc(O)c(O)cc1F (stereo not drawn) [6-Fluoronorepinephrine hydrochloride] | 77.6 ± 28.4%
61 | Clc1cccc(Cl)c1N=C1NCCN1 [Clonidine hydrochloride] | 101.9 ± 9.8%
62 | COc1ccccc1N1CCN(CCN2C(=O)CC3(CCCC3)CC2=O)CC1.Cl.Cl [BMY 7378 dihydrochloride] | 82.8 ± 23.0%
63 | C=CCc1cccc(/C=N/NC(=O)CN2CCN(Cc3ccccc3)CC2)c1O [PAC-1] | 105.3 ± 4.5%
64 | Ro 41-0960 | 98.8 ± 6.8%
65 | Brc1c(Br)c(Br)c2n[nH]nc2c1Br [TBB] | 67.4 ± 13.4%
66 | CC(C)(C)c1ccc(C(O)CCCN2CCC(C(O)(c3ccccc3)c3ccccc3)CC2)cc1 (stereo not drawn) [Terfenadine] | 101.9 ± 5.3%
67 | C#CCOC(=O)C1=CCCN(C)C1 [Arecaidine propargyl ester hydrobromide] | 96.0 ± 12.2%
68 | Nc1nc2c(ncn2COCCO)c(=O)[nH]1 [Acyclovir] | 99.9 ±13.7%
69 | Cn1c(=O)c2[nH]c(-c3ccc(S(=O)(=O)O)cc3)nc2n(C)c1=O [8-(p-Sulfophenyl)theophylline] | 97.2 ± 13.7%
70 | CCS(=O)(=O)Nc1cccc(C(=C2CCCCC2)c2cnc[nH]2)c1 [A-315456] | 92.6 ± 5.2%

same assay, conditions: % of control wells (1% DMSO and 25 nM CA200645); compounds at 10 µM; whole live cells expressing A3AR; mean ± SD, three experiments in duplicate

Row | Compound | % 25 nM CA200645 binding
71 | CS(=O)(=O)c1ccc(-n2nc(C(F)(F)F)cc2-c2ccc(F)cc2)cc1 [SC-58125] | 96.5 ± 13.6%

same assay, conditions: % of control wells (1% DMSO and 25 nM CA200645); compounds at 10 µM; whole live cells expressing the A3AR; mean ± SD, three experiments in duplicate

Row | Compound | % 25 nM CA200645 binding
72 | COc1ccc(CCCOC(Cn2ccnc2)c2ccc(OC)cc2)cc1 (stereo not drawn) [SKF 96365] | 100.0 ± 16.7%
